Values of other authors as cited in patent publication US20240016743A1, “A METHOD FOR PRODUCING ENTACAPONE TABLETS” (CHINA MEHECO KANGLI PHARMA CO., LTD, priority 2021, published 2024).

Settings: clinical trials

SMILES: N[C@@H](Cc1ccc(O)c(O)c1)C(=O)O [levodopa]
- prolong the "On" time: 16%
- shorten the "Off" time: 24%
